Measured values as given in ChEMBL document CHEMBL1201862, “PubChem BioAssay data set” (2004).
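A five-concentration, 48-hour dose response in 96-well plates underlies each endpoint, interpolated linearly between surrounding concentrations. At the GI50, growth is halved.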 Active and inactive are the calls of the source. No stated cut-off is given here; in the data, active = GI50 up to about 1.1 µM and inactive = higher.

How the values were obtained:
Assay in all cases: inhibition of tumour cell growth, NCI panel, 48 h
HT-29 = tested on: HT-29
NCI-H226 = tested on: NCI-H226
NCI-H23 = tested on: NCI-H23
IGROV-1 = tested on: IGROV-1
SK-MEL-2 = tested on: SK-MEL-2
UO-31 = tested on: UO-31
MDA-N = tested on: MDA-N
SF-268 = tested on: SF-268
HCT-15 = tested on: HCT-15
SNB-19 = tested on: SNB-19
OVCAR-3 = tested on: OVCAR-3
CAKI-1 = tested on: CAKI-1
M14 = tested on: M14
A498 = tested on: A498
PC-3 = tested on: PC-3
BT-549 = tested on: BT-549
SK-MEL-5 = tested on: SK-MEL-5
MCF7 = tested on: MCF7
CCRF-CEM = tested on: CCRF-CEM
HCT-116 = tested on: HCT-116
HL-60 = tested on: HL-60
MDA-MB-231 = tested on: MDA-MB-231
EKVX = tested on: EKVX
UACC-62 = tested on: UACC-62
LOX IMVI = tested on: LOX IMVI
NCI-H460 = tested on: NCI-H460
SF-295 = tested on: SF-295
MOLT-4 = tested on: MOLT-4
SK-MEL-28 = tested on: SK-MEL-28
RXF 393 = tested on: RXF 393
SK-OV-3 = tested on: SK-OV-3
OVCAR-5 = tested on: OVCAR-5
RPMI-8226 = tested on: RPMI-8226
SR = tested on: SR
KM12 = tested on: KM12
SW-620 = tested on: SW-620
T47D = tested on: T47D
OVCAR-4 = tested on: OVCAR-4
ACHN = tested on: ACHN
UACC-257 = tested on: UACC-257
786-0 = tested on: 786-0
HCC 2998 = tested on: HCC 2998
Hs-578T = tested on: Hs-578T
SF-539 = tested on: SF-539
K562 = tested on: K562
TK-10 = tested on: TK-10
A549 = tested on: A549
U-251 = tested on: U-251
HOP-92 = tested on: HOP-92
SNB-75 = tested on: SNB-75
OVCAR-8 = tested on: OVCAR-8
DU-145 = tested on: DU-145
Malme-3M = tested on: Malme-3M
NCI/ADR-RES = tested on: NCI/ADR-RES
MDA-MB-435 = tested on: MDA-MB-435
COLO 205 = tested on: COLO 205
SN12C = tested on: SN12C
HOP-62 = tested on: HOP-62

`O=C1Nc2ccccc2NC1C1OC(c2ccccc2)=CC1=O` (configuration not stated) was tested, and the GI50 (HT-29) was > 100 µM (inactive), the GI50 (NCI-H226) was > 100 µM (inactive) and the GI50 (NCI-H23) was > 100 µM (inactive). For the same compound, the GI50 (IGROV-1) was > 100 µM (inactive), the GI50 (SK-MEL-2) was > 100 µM (inactive) and the GI50 (UO-31) was > 100 µM (inactive). The GI50 (MDA-N) was > 100 µM (inactive), the GI50 (SF-268) was > 100 µM (inactive) and the GI50 (HCT-15) was over 100 µM. For the same compound, the GI50 (SNB-19) was > 100 µM (inactive), the GI50 (OVCAR-3) was > 100 µM (inactive) and the GI50 (CAKI-1) was > 100 µM (inactive). The GI50 (M14) was > 100 µM (inactive), the GI50 (A498) was > 100 µM (inactive) and the GI50 (PC-3) was > 100 µM (inactive). For the same compound, the GI50 (BT-549) was > 100 µM (inactive), the GI50 (SK-MEL-5) was > 100 µM (inactive) and the GI50 (MCF7) was > 100 µM (inactive). The GI50 (CCRF-CEM) was > 100 µM (inactive), the GI50 (HCT-116) was > 100 µM (inactive) and the GI50 (HL-60) was > 100 µM (inactive). The GI50 (MDA-MB-231) was > 100 µM (inactive), the GI50 (EKVX) was > 100 µM (inactive) and the GI50 (UACC-62) was > 100 µM (inactive). For the same compound, the GI50 (LOX IMVI) was > 100 µM (inactive), the GI50 (NCI-H460) was > 100 µM (inactive) and the GI50 (SF-295) was > 100 µM (inactive). The GI50 (MOLT-4) was > 100 µM (inactive), the GI50 (SK-MEL-28) was > 100 µM (inactive) and the GI50 (RXF 393) was > 100 µM (inactive). For the same compound, the GI50 (SK-OV-3) was > 100 µM (inactive), the GI50 (OVCAR-5) was > 100 µM (inactive) and the GI50 (RPMI-8226) was > 100 µM (inactive). For the same compound, the GI50 (SR) was > 100 µM (inactive), the GI50 (KM12) was > 100 µM (inactive) and the GI50 (SW-620) was > 100 µM (inactive). For the same compound, the GI50 (T47D) was > 100 µM (inactive), the GI50 (OVCAR-4) was > 100 µM (inactive) and the GI50 (ACHN) was > 100 µM (inactive). The GI50 (UACC-257) was 40.8 µM (inactive), the GI50 (786-0) was > 100 µM (inactive) and the GI50 (HCC 2998) was > 100 µM (inactive). For the same compound, the GI50 (Hs-578T) was > 100 µM (inactive), the GI50 (SF-539) was > 100 µM (inactive) and the GI50 (K562) was > 100 µM (inactive). The GI50 (TK-10) was > 100 µM (inactive), the GI50 (A549) was > 100 µM (inactive) and the GI50 (U-251) was > 100 µM (inactive). For the same compound, the GI50 (HOP-92) was > 100 µM (inactive), the GI50 (SNB-75) was > 100 µM (inactive) and the GI50 (OVCAR-8) was > 100 µM (inactive). For the same compound, the GI50 (DU-145) was > 100 µM (inactive), the GI50 (Malme-3M) was > 100 µM (inactive) and the GI50 (NCI/ADR-RES) was 82.2 µM (inactive). The GI50 (MDA-MB-435) was > 100 µM (inactive) and the GI50 (COLO 205) was > 100 µM (inactive).

For `[N-]=[N+]=NC1(c2ccccc2)C(=O)Nc2ccccc2C1=O` (configuration not stated), the GI50 (HT-29) was 31.3 µM (inactive), the GI50 (NCI-H23) was 34.9 µM (inactive) and the GI50 (IGROV-1) was 37.1 µM (inactive). For the same compound, the GI50 (SN12C) was 48.8 µM (inactive), the GI50 (SK-MEL-2) was 24.4 µM (inactive) and the GI50 (UO-31) was 22.1 µM (inactive). For the same compound, the GI50 (MDA-N) was 21.4 µM (inactive), the GI50 (SF-268) was 38.2 µM (inactive) and the GI50 (HCT-15) was 33.8 µM. The GI50 (SNB-19) was 38 µM (inactive), the GI50 (OVCAR-3) was 35 µM (inactive) and the GI50 (CAKI-1) was 32.2 µM (inactive). For the same compound, the GI50 (M14) was 20.4 µM (inactive), the GI50 (A498) was 0.706 µM (active) and the GI50 (PC-3) was 25.1 µM (inactive). For the same compound, the GI50 (BT-549) was 13.8 µM (inactive), the GI50 (SK-MEL-5) was 14.9 µM (inactive) and the GI50 (MCF7) was 35 µM (inactive). The GI50 (CCRF-CEM) was 27.3 µM (inactive), the GI50 (HCT-116) was 30.3 µM (inactive) and the GI50 (HL-60) was 34.5 µM (inactive). For the same compound, the GI50 (MDA-MB-231) was 55.2 µM (inactive), the GI50 (UACC-62) was 19.1 µM (inactive) and the GI50 (LOX IMVI) was 37.5 µM (inactive). The GI50 (NCI-H460) was 37.5 µM (inactive), the GI50 (SF-295) was 56.4 µM (inactive) and the GI50 (MOLT-4) was 21.7 µM (inactive). The GI50 (SK-MEL-28) was 56.2 µM (inactive), the GI50 (RXF 393) was 25.5 µM (inactive) and the GI50 (SK-OV-3) was 55.6 µM (inactive). For the same compound, the GI50 (OVCAR-5) was 30 µM (inactive), the GI50 (RPMI-8226) was 22.7 µM (inactive) and the GI50 (SR) was 41.2 µM (inactive). The GI50 (KM12) was 30.1 µM (inactive), the GI50 (SW-620) was 26.4 µM (inactive) and the GI50 (T47D) was 95.5 µM (inactive). For the same compound, the GI50 (OVCAR-4) was 54.7 µM (inactive), the GI50 (ACHN) was 34.6 µM (inactive) and the GI50 (UACC-257) was 78.2 µM (inactive). The GI50 (786-0) was 68.2 µM (inactive), the GI50 (HCC 2998) was 57.8 µM (inactive) and the GI50 (Hs-578T) was 22.3 µM (inactive). The GI50 (SF-539) was 36.8 µM (inactive), the GI50 (K562) was 29.4 µM (inactive) and the GI50 (TK-10) was 49.5 µM (inactive). For the same compound, the GI50 (A549) was 76.4 µM (inactive), the GI50 (U-251) was 41.2 µM (inactive) and the GI50 (HOP-92) was 26.1 µM (inactive). For the same compound, the GI50 (SNB-75) was 60.3 µM (inactive), the GI50 (DU-145) was 75.5 µM (inactive) and the GI50 (HOP-62) was 41.8 µM (inactive). For the same compound, the GI50 (Malme-3M) was 40.7 µM (inactive), the GI50 (NCI/ADR-RES) was 51.2 µM (inactive) and the GI50 (MDA-MB-435) was 11.3 µM (inactive). For the same compound, the GI50 (COLO 205) was 71.4 µM (inactive).

In the case of `C(=C/CCCN1O[C@@H](CCCCCCCCc2cccnc2)[C@H]2CCC[C@H]21)/CCCCCCCCCc1cccnc1`, the GI50 (HT-29) is reported as 21.9 µM (inactive), the GI50 (NCI-H226) is reported as 16.4 µM (inactive) and the GI50 (NCI-H23) is reported as 16.6 µM (inactive). The GI50 (IGROV-1) was 30.5 µM (inactive), the GI50 (SN12C) was 19.7 µM (inactive) and the GI50 (SK-MEL-2) was 22.4 µM (inactive). The GI50 (UO-31) was 19.4 µM (inactive), the GI50 (MDA-N) was 24.1 µM (inactive) and the GI50 (SF-268) was 23.4 µM (inactive). For the same compound, the GI50 (HCT-15) was 24.8 µM, the GI50 (SNB-19) was 25.6 µM (inactive) and the GI50 (OVCAR-3) was 17.1 µM (inactive). The GI50 (CAKI-1) was 13.5 µM (inactive), the GI50 (M14) was 24 µM (inactive) and the GI50 (A498) was 22.1 µM (inactive). For the same compound, the GI50 (PC-3) was 18.8 µM (inactive), the GI50 (BT-549) was 33 µM (inactive) and the GI50 (SK-MEL-5) was 17.5 µM (inactive). The GI50 (MCF7) was 15.7 µM (inactive), the GI50 (CCRF-CEM) was 15.7 µM (inactive) and the GI50 (HCT-116) was 16 µM (inactive). For the same compound, the GI50 (HL-60) was 5.22 µM (inactive), the GI50 (MDA-MB-231) was 17.9 µM (inactive) and the GI50 (EKVX) was 4.48 µM (inactive). For the same compound, the GI50 (UACC-62) was 20.9 µM (inactive), the GI50 (LOX IMVI) was 12.7 µM (inactive) and the GI50 (NCI-H460) was 17.3 µM (inactive). For the same compound, the GI50 (SF-295) was 20 µM (inactive), the GI50 (MOLT-4) was 21.7 µM (inactive) and the GI50 (SK-MEL-28) was 21.3 µM (inactive). The GI50 (RXF 393) was 17.1 µM (inactive), the GI50 (SK-OV-3) was 19 µM (inactive) and the GI50 (OVCAR-5) was 20 µM (inactive). The GI50 (RPMI-8226) was 7.96 µM (inactive), the GI50 (SR) was 17.2 µM (inactive) and the GI50 (KM12) was 18.5 µM (inactive). The GI50 (SW-620) was 31.3 µM (inactive), the GI50 (T47D) was 20.7 µM (inactive) and the GI50 (OVCAR-4) was 32.4 µM (inactive). For the same compound, the GI50 (UACC-257) was 14.6 µM (inactive), the GI50 (786-0) was 18.7 µM (inactive) and the GI50 (Hs-578T) was 37.8 µM (inactive). For the same compound, the GI50 (SF-539) was 18.1 µM (inactive), the GI50 (K562) was 11.1 µM (inactive) and the GI50 (TK-10) was 18.4 µM (inactive). The GI50 (A549) was 14.1 µM (inactive), the GI50 (U-251) was 15.7 µM (inactive) and the GI50 (HOP-92) was 13.2 µM (inactive). The GI50 (SNB-75) was 27.1 µM (inactive), the GI50 (OVCAR-8) was 31.6 µM (inactive) and the GI50 (DU-145) was 32.4 µM (inactive). For the same compound, the GI50 (HOP-62) was 20.8 µM (inactive), the GI50 (Malme-3M) was 15.4 µM (inactive) and the GI50 (NCI/ADR-RES) was 28.1 µM (inactive). For the same compound, the GI50 (MDA-MB-435) was 16.2 µM (inactive) and the GI50 (COLO 205) was 14.9 µM (inactive).
